# Patent publication US20260021079A1, “NOX INHIBITORS FOR USE IN THE TREATMENT OF ALPORT SYNDROME” (CALLIDITAS THERAPEUTICS SUISSE SA, priority 2022, published 2026)
# How the values were obtained:
# Assay type in all cases: in vivo
# [1] = tested on: homozygous Col4a3 ko/ko mice; assay: Albumin levels in urine (Albumin Mouse ELISA) in Col4a3 Alport mouse model; conditions: setanaxib 60 mg/kg daily oral gavage, Ramipril 10 mg/kg via drinking water; for Albumin levels in urine vs vehicle: age 6 weeks (2 weeks of treatment)
# Source text: Mice homozygous for the Col4a3 ko/ko targeted mutation are a model for autosomal-recessive Alport syndrome (Cosgrove et al. Kidney Int. 2007, 71(7), p. 615-618). Animals bred on a 129/SvJ background develop glomerulonephritis and die at about 8.5 weeks of age (Jackson Laboratory strain: #002908). Gross et al. Kidney Int. 2003, 63(2), p. 438-446) reported a mean survival of 10 weeks. Since homozygous Col4a3 ko/ko mice reflect key features of Alport syndrome, this mouse model is useful to test potential drug candidates. A number of 40 homozygous Col4a3 ko/ko mice, allocated to 4 groups (vehicle, setanaxib, Ramipril, and setanaxib+Ramipril combination) with n=10 animals each, were used for the study. Starting at an age of 4 weeks, animals were treated with vehicle and/or compound daily per oral gavage for 4 weeks. The reference compound Ramipril was administered via drinking water, prepared on a weekly basis, but changed at the latest after 4 days. Additionally, one wild-type control group (Col4A3+/+) without any treatment was enclosed in the study with n=6 animals. […] Albumin and Creatinine levels were evaluated by ELISA in urine samples of 8 animals per treatment group. Treatment 40 homozygous Col4a3 ko/ko mice, allocated to 4 groups with n=10 animals each, were used for this study. Animals were treated with vehicle or compound daily per oral gavage for 4 weeks starting at an age of 4 weeks. The reference compound Ramipril was administered via drinking water, prepared on a weekly basis, but changed latest after 4 days. Additionally, one wild-type control group without any treatment was enclosed in the study with n=6 animals. The treatment groups are outlined in the table below: […] In case no urine was produced during the fixation process, massage of the abdomen was allowed. Urine was collected in Eppendorf Tubes, spun at 800×g at room temperature for 10 minutes and supernatant was transferred into a fresh tube and frozen at -20° C. until use. Creatinine and Albumin levels in urine supernatants, collected from 8 animals each group […] timepoints, at baseline, 6 and 8 weeks of age (n=96), were analyzed. Albumin levels in urine supernatants, collected from each animal per group at 3 time points (total n=96) were analyzed using an Albumin Mouse ELISA Kit (ab108792; Abcam) according to manufacturer protocol. Briefly, urine samples were centrifuged at 800×g for 10 minutes and diluted into Diluent N. 50 μL of albumin standard or sample was added per well and incubated for 2 hours. After a washing step, 50 μL of biotinylated albumin antibody was added to each well and incubated for 1 hour. […] Albumin levels were determined by reading the absorbance at 450 nm immediately after adding the stop solution.
# [2] = tested on: homozygous Col4a3 ko/ko mice; assay: Albumin/creatinine ratio in urine in Col4a3 Alport mouse model; conditions: Ramipril 10 mg/kg
# Source text: Mice homozygous for the Col4a3 ko/ko targeted mutation are a model for autosomal-recessive Alport syndrome (Cosgrove et al. Kidney Int. 2007, 71(7), p. 615-618). Animals bred on a 129/SvJ background develop glomerulonephritis and die at about 8.5 weeks of age (Jackson Laboratory strain: #002908). Gross et al. Kidney Int. 2003, 63(2), p. 438-446) reported a mean survival of 10 weeks. Since homozygous Col4a3 ko/ko mice reflect key features of Alport syndrome, this mouse model is useful to test potential drug candidates. A number of 40 homozygous Col4a3 ko/ko mice, allocated to 4 groups (vehicle, setanaxib, Ramipril, and setanaxib+Ramipril combination) with n=10 animals each, were used for the study. Starting at an age of 4 weeks, animals were treated with vehicle and/or compound daily per oral gavage for 4 weeks. The reference compound Ramipril was administered via drinking water, prepared on a weekly basis, but changed at the latest after 4 days. Additionally, one wild-type control group (Col4A3+/+) without any treatment was enclosed in the study with n=6 animals. […] Albumin and Creatinine levels were evaluated by ELISA in urine samples of 8 animals per treatment group. Treatment 40 homozygous Col4a3 ko/ko mice, allocated to 4 groups with n=10 animals each, were used for this study. Animals were treated with vehicle or compound daily per oral gavage for 4 weeks starting at an age of 4 weeks. The reference compound Ramipril was administered via drinking water, prepared on a weekly basis, but changed latest after 4 days. Additionally, one wild-type control group without any treatment was enclosed in the study with n=6 animals. The treatment groups are outlined in the table below: […] In case no urine was produced during the fixation process, massage of the abdomen was allowed. Urine was collected in Eppendorf Tubes, spun at 800×g at room temperature for 10 minutes and supernatant was transferred into a fresh tube and frozen at -20° C. until use. Creatinine and Albumin levels in urine supernatants, collected from 8 animals each group […] timepoints, at baseline, 6 and 8 weeks of age (n=96), were analyzed. Creatinine levels in urine samples of all animals (n=8 per group, 4 groups, 3 time points, total n=96) were analyzed. For that purpose, an enzymatic assay from Diazyme® (DZ072B) was used. The analysis was performed according to manufacturer protocol with minor modifications introduced for use in 96 well plates and readout in standard plate photometer (Cytation 5, Biotek). Albumin levels in urine supernatants, collected from each animal per group at 3 time points (total n=96) were analyzed using an Albumin Mouse ELISA Kit (ab108792; Abcam) according to manufacturer protocol.
# [3] = tested on: homozygous Col4a3 ko/ko mice; assay: Blood Urea Nitrogen (BUN) colorimetric detection in plasma, Col4a3 Alport mouse model; conditions: end of study (4 weeks of treatment); first experiment
# Source text: (§1) Mice homozygous for the Col4a3 ko/ko targeted mutation are a model for autosomal-recessive Alport syndrome (Cosgrove et al. Kidney Int. 2007, 71(7), p. 615-618). Animals bred on a 129/SvJ background develop glomerulonephritis and die at about 8.5 weeks of age (Jackson Laboratory strain: #002908). Gross et al. Kidney Int. 2003, 63(2), p. 438-446) reported a mean survival of 10 weeks. Since homozygous Col4a3 ko/ko mice reflect key features of Alport syndrome, this mouse model is useful to test potential drug candidates. A number of 40 homozygous Col4a3 ko/ko mice, allocated to 4 groups (vehicle, setanaxib, Ramipril, and setanaxib+Ramipril combination) with n=10 animals each, were used for the study. Starting at an age of 4 weeks, animals were treated with vehicle and/or compound daily per oral gavage for 4 weeks. The reference compound Ramipril was administered via drinking water, prepared on a weekly basis, but changed at the latest after 4 days. Additionally, one wild-type control group (Col4A3+/+) without any treatment was enclosed in the study with n=6 animals. At study end the animals were euthanized by i.p. injection of pentobarbital and terminal blood was collected by heart puncture in EDTA coated tubes. […] BUN plasma levels of all animals at the end of the study were analyzed. […]
# [4] = tested on: homozygous Col4a3 ko/ko mice; assay: Quantitative detection of mouse Cystatin C in plasma (ELISA), Col4a3 Alport mouse model; conditions: end of study (4 weeks of treatment); first experiment
# Source text: as §1, with “Cystatin C” for “BUN”
# [5] = age 8 weeks (4 weeks of treatment), setanaxib 60 mg/kg
SMILES,Albumin levels in urine vs vehicle ([1]; first experiment),Albumin levels in urine vs vehicle ([1]; second experiment),"Albumin to Creatinine ratio in urine vs vehicle ([2]; age 6 weeks, first experiment, setanaxib 60 mg/kg)","Albumin to Creatinine ratio in urine vs vehicle ([2]; age 6 weeks, second experiment)","Albumin to Creatinine ratio in urine vs vehicle [2, 5]",BUN plasma levels vs vehicle [3],Cystatin C plasma levels vs vehicle [4],Albumin levels in urine vs vehicle ([1]; both experiments / experiment not specified),Albumin levels in urine vs control (vehicle) ([1]; age 8 weeks (4 weeks of treatment)),"Albumin to Creatinine ratio in urine vs vehicle ([2]; age 6 weeks, both first and second experiment, setanaxib 60 mg/kg)"
"CCOC(=O)[C@H](CCc1ccccc1)N[C@@H](C)C(=O)N1[C@H](C(=O)O)C[C@@H]2CCC[C@@H]21 [Ramipril, (2S,3aS,6aS)-1-[(2S)-2-[[(2S)-1-ethoxy-1-oxo-4-phenylbutan-2-yl]amino]propanoyl]-3,3a, 4,5,6,6a-hexahydro-2H-cyclopenta[b]pyrrole-2-carboxylic acid]",slightly reduced the amount of albumin in the urine,reduced to a greater extent,"reduced the Albumin to Creatinine ratio, but without reaching significance",the reduction did reach significance,significantly decreased,significant decrease,significant decrease,,,
"CN(C)c1cccc(-c2c3c(=O)n(-c4ccccc4Cl)[nH]c3cc(=O)n2C)c1 [setanaxib, 2-(2-chlorophenyl)-4-[3-(dimethylamino)phenyl]-5-methyl-1H-pyrazolo[4,3-c]pyridine-3,6(2H,5H)-dione]",,,,,average decrease,significant decrease,significant decrease,trend towards increased Albumin levels,decrease in average Albumin levels,trend in both the first and second experiment towards an increase
